Laboratory results: paper PMC11528066, “Noninvasive Monitoring of Programmed Death-Ligand 2 Expression with Positron Emission Tomography using ^68Ga-labeled Peptide Antagonist in Preclinical and Exploratory Human Studies” (Research, 2024)
Read-outs that look alike come from different tables or passages of the source. Peptide text beside a SMILES is read from it. * marks the point of attachment. NOTA = O=C(O)CN1CCN(CC(=O)O)CCN(CC(=O)*)CC1; AEEEA = NCCOCCOCCOCC(=O)O

Legend:
A549-PD-L2 cell lines = experiment: Cell uptake assay; type: cell-based; settings: A549-PD-L2 cells, n = 5; for cell uptake rate: mean ± SD
Procedure: Cell uptake assays were conducted to measure the uptake of [^68Ga]Ga-HN11-1 and [^68Ga]Ga-HN11-2 in A549 and A459-PD-L2 cell lines following incubation periods of 15, 30, 60, and 90 min. Blocking studies were performed by coincubating cells with an excess of precursor (HN11-1 / HN11-2), and then the cell uptakes of [^68Ga]Ga-HN11-1 and [^68Ga]Ga-HN11-2 were performed in A459-PD-L2 cell lines after 60 min of incubation. The experiment details are provided in the SI.
All tumor cells (1 × 10^6 per well) were seeded in two 24 - well plates, incubated for 24 h and then added with […] of [^68Ga]Ga-HN11-1 or [^68Ga]Ga-HN11-2 per well. After 15, 30, 60 and 90 min of uptake, the cells were separated from the medium, washed with 500 μL of cold PBS for three times and dissolved with 1 M NaOH. At different time points, these cells were collected and counted by using a γ-counter (WIZARD 2480, Pekin Elmer). For in vitro blocking experiments, cells were co-incubated with 10 μg of cold HN11-1 or HN11-2 precursor. After incubation, the cells were washed, collected and measured with a γ-counter, either. The IC50 values of [^68Ga]Ga-HN11-1 or [^68Ga]Ga-HN11-2 were determined using GraphPad Prism 8.0.2 software, respectively.

[1] = Biodistribution (γ-counter); type: in vivo, BALB/C nude mice; settings: male, BALB/C nude, mouse, iv, total radioactivity, mean ± SD, n = 3; for tissue uptake at 10 min / tissue to tissue ratio at 10 min: 10 min p.i.; for tissue uptake at 0.5 h / tissue to tissue ratio at 0.5 h: 30 min p.i.; for tissue uptake at 1.5 h / tissue to tissue ratio at 1.5 h: 90 min p.i.
Procedure: Micro-PET imaging was conducted using an Inveon PET scanner (Siemens, Germany). Dynamic PET examine were acquired over the first 60 min following the simultaneous injection of 7.4 to 9.25 MBq (200 to 250 μCi) of [^68Ga]Ga-HN11-1 and [^68Ga]Ga-HN11-2. After reconstructing the images and delineating the regions of interest (ROIs), time-radioactivity curves were plotted to obtain the Tumor/Muscle (T/M) ratios. %ID/g represents the percentage of the injected dose of the radiotracer that accumulates in a specific tissue per gram of tissue weight. For the biodistribution study, the xenograft models received an intravenous injection of 3.7 to 5.5 MBq (100 to 150 μCi) of [^68Ga]Ga-HN11-1. After the designated period (10, 30, 60, and 90 min), the mice were euthanized, and important tissues and organs were dissected and collected. The samples were counted using the γ-counter for determining the %ID/g, presented as mean ± standard deviation (SD).
A549 cell lines were provided by the China Center for Type Culture Collection (CCTCC) and cultured in RPMI-1640 medium supplemented with 10 % fetal bovine serum and 100 U/mL penicillin-streptomycin. The lentivirus system was implemented to introduce PD-L2 (PDCD1LG2) over-expressed cDNA into the A549 cells. The viral vectors were produced in 293T cells and co-transfected with the psAX2, pMD2G and PD-L2 plasmids. A549 cells transduced with the vectors were selectively grown in 1.6 μg/mL puromycin. Transfection efficiency was identified by WB and real-time quantitative PCR. All the cells were cultured in an incubator at 37° C with 5 % CO2 atmosphere. A549 and A549-PD-L2 cells (5 × 10^6, 200 μL)were subcutaneously implanted into the right shoulder of BALB/C nude mice (male, 4-6 weeks), respectively. When the tumors reached to 5 - 8 mm in diameter, the mice were subjected to in vivo and ex vivo studies. All the mice were purchased from the Laboratory Animal Center of Central South University.

[2] = large intestine, read-out: Large intestine uptake
[3] = muscle, read-out: Muscle uptake
[4] = small intestine, read-out: Small intestine uptake
[5] = tumor and blood, read-out: Tumor/Blood ratio
[6] = tumor and brain, read-out: Tumor/Brain ratio
[7] = tumor and heart, read-out: Tumor/Heart ratio
[8] = tumor and liver, read-out: Tumor/Liver ratio
[9] = tumor and lung, read-out: Tumor/Lung ratio
[10] = tumor and muscle, read-out: Tumor/Muscle ratio

What does the source list for `CC[C@H](C)[C@H](NC(=O)[C@H](CCCNC(=N)N)NC(=O)CNC(=O)[C@H](CCC(=O)O)NC(=O)[C@H](CC(N)=O)NC(=O)[C@H](Cc1ccc(O)cc1)NC(=O)[C@H](CCCNC(=N)N)NC(=O)[C@H](Cc1ccc(O)cc1)NC(=O)[C@H](Cc1c[nH]cn1)NC(=O)COCCOCCOCCNC(=O)CN1CCN(CC(=O)O)CCN(CC(=O)O)CC1)C(=O)N[C@@H](CCCNC(=N)N)C(=O)N[C@@H](CC(N)=O)C(=O)O` [[^68Ga]Ga-HN11-1, metal not drawn] ({NOTA-AEEEA}-HYRYNEGRIRN-OH)?
cell uptake rate (A549-PD-L2 cell lines; 30 min incubation, γ-counter): 4.51 ± 0.04%; cell uptake, block group (A549-PD-L2 cell lines; 60 min, with excess (10 μg) of cold HN11-1 / HN11-2 precursor): 1.43 ± 0.13%; cell uptake rate (A549-PD-L2 cell lines; 60 min incubation): 4.87 ± 0.28%; tissue uptake at 10 min ([1]; bone, read-out: Bone uptake): 0.68 ± 0.06 %ID/g; tissue uptake at 0.5 h ([1]; bone, read-out: Bone uptake): 0.6 ± 0.03 %ID/g; tissue uptake at 1 h ([1]; bone, 60 min HN11-1 Block, read-out: Bone uptake): 0.43 ± 0.07 %ID/g; tissue uptake at 1 h ([1]; bone, 60 min p.i., read-out: Bone uptake): 0.41 ± 0.08 %ID/g; tissue uptake at 1.5 h ([1]; bone, read-out: Bone uptake): 0.31 ± 0.06 %ID/g; tissue uptake at 10 min ([1]; brain, read-out: Brain uptake): 0.17 ± 0.03 %ID/g; tissue uptake at 0.5 h ([1]; brain, read-out: Brain uptake): 0.12 ± 0.03 %ID/g; tissue uptake at 1 h ([1]; brain, 60 min HN11-1 Block, read-out: Brain uptake): 0.07 ± 0.01 %ID/g; tissue uptake at 1 h ([1]; brain, 60 min p.i., read-out: Brain uptake): 0.07 ± 0.01 %ID/g; tissue uptake at 1.5 h ([1]; brain, read-out: Brain uptake): 0.03 ± 0.01 %ID/g; tissue uptake at 10 min ([1]; kidney, read-out: Kidney uptake): 55.6 ± 6.6 %ID/g; tissue uptake at 10 min [1, 2]: 1.02 ± 0.06 %ID/g; tissue uptake at 0.5 h [1, 2]: 0.48 ± 0.09 %ID/g; tissue uptake at 1 h ([1]; large intestine, 60 min HN11-1 Block, read-out: Large intestine uptake): 0.23 ± 0.05 %ID/g; tissue uptake at 1 h ([1]; large intestine, 60 min p.i., read-out: Large intestine uptake): 0.21 ± 0.05 %ID/g; tissue uptake at 1.5 h [1, 2]: 0.1 ± 0.01 %ID/g; tissue uptake at 10 min [1, 3]: 0.89 ± 0.02 %ID/g; tissue uptake at 0.5 h [1, 3]: 0.69 ± 0.07 %ID/g; tissue uptake at 1 h ([1]; muscle, 60 min HN11-1 Block, read-out: Muscle uptake): 0.56 ± 0.04 %ID/g; tissue uptake at 1 h ([1]; muscle, 60 min p.i., read-out: Muscle uptake): 0.56 ± 0.09 %ID/g; tissue uptake at 1.5 h [1, 3]: 0.15 ± 0.03 %ID/g; tissue uptake at 10 min [1, 4]: 0.86 ± 0.09 %ID/g; tissue uptake at 0.5 h [1, 4]: 0.62 ± 0.04 %ID/g; tissue uptake at 1 h ([1]; small intestine, 60 min HN11-1 Block, read-out: Small intestine uptake): 0.34 ± 0.04 %ID/g; tissue uptake at 1 h ([1]; small intestine, 60 min p.i., read-out: Small intestine uptake): 0.21 ± 0.02 %ID/g; tissue uptake at 1.5 h [1, 4]: 0.16 ± 0.05 %ID/g; tissue to tissue ratio at 10 min [1, 5]: 0.58 ± 0.15; tissue to tissue ratio at 0.5 h [1, 5]: 2.66 ± 0.47; tissue to tissue ratio at 1 h ([1]; tumor and blood, 60 min p.i., read-out: Tumor/Blood ratio): 6.41 ± 0.98; tissue to tissue ratio at 1.5 h [1, 5]: 2.58 ± 0.52; tissue to tissue ratio at 1 h ([1]; tumor and blood, with HN11-1 (block; amount not stated), 60 min HN11-1 Block, read-out: Tumor/Blood ratio): 1.94 ± 0.67; tissue to tissue ratio at 10 min [1, 6]: 10.3 ± 3.45; tissue to tissue ratio at 0.5 h [1, 6]: 30.9 ± 8.94; tissue to tissue ratio at 1 h ([1]; tumor and brain, 60 min p.i., read-out: Tumor/Brain ratio): 31.9 ± 7.97; tissue to tissue ratio at 1.5 h [1, 6]: 12.3 ± 2.45; tissue to tissue ratio at 1 h ([1]; tumor and brain, with HN11-1 (block; amount not stated), 60 min HN11-1 Block, read-out: Tumor/Brain ratio): 9.41 ± 2.19; tissue to tissue ratio at 10 min [1, 7]: 1.15 ± 0.19; tissue to tissue ratio at 0.5 h [1, 7]: 4.13 ± 0.21; tissue to tissue ratio at 1 h ([1]; tumor and heart, 60 min p.i., read-out: Tumor/Heart ratio): 12.7 ± 2.22; tissue to tissue ratio at 1.5 h [1, 7]: 3 ± 0.15; tissue to tissue ratio at 1 h ([1]; tumor and heart, with HN11-1 (block; amount not stated), 60 min HN11-1 Block, read-out: Tumor/Heart ratio): 3.68 ± 1.43; tissue to tissue ratio at 10 min [1, 8]: 0.56 ± 0.07; tissue to tissue ratio at 0.5 h [1, 8]: 2.61 ± 0.82; tissue to tissue ratio at 1 h ([1]; tumor and liver, 60 min p.i., read-out: Tumor/Liver ratio): 2.53 ± 0.75; tissue to tissue ratio at 1.5 h [1, 8]: 2.13 ± 1.27; tissue to tissue ratio at 1 h ([1]; tumor and liver, with HN11-1 (block; amount not stated), 60 min HN11-1 Block, read-out: Tumor/Liver ratio): 0.57 ± 0.27; tissue to tissue ratio at 10 min [1, 9]: 1.04 ± 0.22; tissue to tissue ratio at 0.5 h [1, 9]: 3.69 ± 0.24; tissue to tissue ratio at 1 h ([1]; tumor and lung, 60 min p.i., read-out: Tumor/Lung ratio): 3.01 ± 0.53; tissue to tissue ratio at 1.5 h [1, 9]: 1.05 ± 0.24; tissue to tissue ratio at 1 h ([1]; tumor and lung, with HN11-1 (block; amount not stated), 60 min HN11-1 Block, read-out: Tumor/Lung ratio): 0.69 ± 0.23; tissue to tissue ratio at 10 min [1, 10]: 1.82 ± 0.32; tissue to tissue ratio at 0.5 h [1, 10]: 5.11 ± 0.25; tissue to tissue ratio at 1 h ([1]; tumor and muscle, 60 min p.i., read-out: Tumor/Muscle ratio): 4.11 ± 1.25; tissue to tissue ratio at 1.5 h [1, 10]: 2.66 ± 0.43; tissue to tissue ratio at 1 h ([1]; tumor and muscle, with HN11-1 (block; amount not stated), 60 min HN11-1 Block, read-out: Tumor/Muscle ratio): 1.11 ± 0.27; tissue uptake at 10 min ([1]; tumor, read-out: Tumor uptake): 1.61 ± 0.28 %ID/g; tissue uptake at 0.5 h ([1]; tumor, read-out: Tumor uptake): 3.52 ± 0.35 %ID/g; tissue uptake at 1 h ([1]; tumor, 60 min HN11-1 Block, read-out: Tumor uptake): 0.63 ± 0.18 %ID/g; tissue uptake at 1 h ([1]; tumor, 60 min p.i., read-out: Tumor uptake): 2.2 ± 0.3 %ID/g; tissue uptake at 1.5 h ([1]; tumor, read-out: Tumor uptake): 0.39 %ID/g
